The results in this text go back to patent US9006187B2, “Thiophene derivative as SGLT2 inhibitor and pharmaceutical composition comprising same” (Green Cross Corporation, priority 2010, dated 2015).

For orientation: IC50 means the midpoint of a concentration-inhibition curve.

Structures are written as SMILES. Bounds are passed on as bounds.

The target of this assay is Human SGLT2 (hSGLT2) (Homo sapiens (Human), UniProt P31639). Kind of assay: Inhibitory effects on human SGLT2 activities: sodium-dependent 14C-AMG glucose transport (uptake) assay in CHO cells expressing hSGLT2. The following applies: read-out: hSGLT2 Inhibitory Activity IC50; CHO cells stably expressing hSGLT2; 14C-AMG uptake, 37° C., 2 h; single determinations for examples; in-house assay.
Chain of Human SGLT2 (hSGLT2) (P31639 whole entry): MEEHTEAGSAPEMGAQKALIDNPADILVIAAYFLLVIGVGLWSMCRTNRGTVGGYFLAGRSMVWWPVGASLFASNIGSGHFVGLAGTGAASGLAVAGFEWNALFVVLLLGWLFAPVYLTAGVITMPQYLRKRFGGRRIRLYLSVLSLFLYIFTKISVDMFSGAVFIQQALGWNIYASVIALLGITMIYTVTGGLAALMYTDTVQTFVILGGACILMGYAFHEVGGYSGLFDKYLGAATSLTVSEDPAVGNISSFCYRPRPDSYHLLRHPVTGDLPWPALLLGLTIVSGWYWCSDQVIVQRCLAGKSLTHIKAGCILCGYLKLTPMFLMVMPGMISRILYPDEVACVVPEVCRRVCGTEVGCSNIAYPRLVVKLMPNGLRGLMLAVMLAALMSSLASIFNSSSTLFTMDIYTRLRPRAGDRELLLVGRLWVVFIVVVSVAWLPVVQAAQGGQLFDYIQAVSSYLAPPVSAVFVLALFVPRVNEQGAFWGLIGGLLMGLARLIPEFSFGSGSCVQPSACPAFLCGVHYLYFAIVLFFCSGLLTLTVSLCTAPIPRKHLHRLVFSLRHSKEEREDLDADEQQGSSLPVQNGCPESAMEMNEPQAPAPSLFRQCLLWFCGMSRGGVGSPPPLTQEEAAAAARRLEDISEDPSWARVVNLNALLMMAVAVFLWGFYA
Regarding `CC(C)Oc1ccc(Cc2cc([C@@H]3O[C@H](CO)[C@@H](O)[C@H](O)[C@H]3O)sc2Cl)cc1` [Example 9, (2R,3R,4S,5S,6R)-2-(5-chloro-4-(4-isopropoxybenzyl)thiophen-2-yl)-6-(hydroxymethyl)-tetrahydro-2H-pyran-3,4,5-triol], the IC50 is 0.0119 µM.

`Cc1ccc(Cc2sc([C@@H]3O[C@H](CO)[C@@H](O)[C@H](O)[C@H]3O)cc2C)cc1` [Example 26, (2R,3S,4S,5R,6R)-2-(hydroxymethyl)-6-(4-methyl-5-(4-methylbenzyl)thiophen-2-yl)tetrahydro-2H-pyran-3,4,5-triol]: the IC50 stood at 0.0696 µM.

On to `Cc1ccc(Cc2cc([C@@H]3O[C@H](CO)[C@@H](O)[C@H](O)[C@H]3O)sc2Cl)cc1` [Example 14, (2R,3R,4S,5S,6R)-2-(5-chloro-4-(4-methylbenzyl)thiophen-2-yl)-6-(hydroxymethyl)-tetrahydro-2H-pyran-3,4,5-triol], for which the IC50 worked out at 0.0602 µM.

Turning to `COc1ccc(Cc2sc([C@@H]3O[C@H](CO)[C@@H](O)[C@H](O)[C@H]3O)cc2C)cc1` [Example 30, (2R,3S,4S,5R,6R)-2-(hydroxymethyl)-6-(5-(4-methoxybenzyl)-4-methylthiophen-2-yl)tetrahydro-2H-pyran-3,4,5-triol], the IC50 came to 0.0689 µM.

Consider `CC#CCOc1ccc(Cc2cc([C@@H]3O[C@H](CO)[C@@H](O)[C@H](O)[C@H]3O)sc2Cl)cc1` [Example 15, (2R,3R,4S,5S,6R)-2-(4-(4-(but-2-ynyloxy)benzyl)-5-chlorothiophen-2-yl)-6-(hydroxymethyl)-tetrahydro-2H-pyran-3,4,5-triol], for which the IC50 came to 0.094 µM.

With `OC[C@H]1O[C@@H](c2cc(Cc3ccc(OC4CCOC4)cc3)c(Cl)s2)[C@H](O)[C@@H](O)[C@@H]1O` (stereo partly drawn) [Example 16, (2R,3R,4S,5S,6R)-2-(5-chloro-4-(4-(tetrahydrofuran-3-yloxy)benzyl)thiophen-2-yl)-6-(hydroxymethyl)-tetrahydro-2H-pyran-3,4,5-triol], the IC50 was determined as 0.162 µM.

Take `C#CCOc1ccc(Cc2cc([C@@H]3O[C@H](CO)[C@@H](O)[C@H](O)[C@H]3O)sc2Cl)cc1` [Example 8, (2R,3R,4S,5S,6R)-2-(5-chloro-4-(4-(prop-2-ynyloxy)benzyl)thiophen-2-yl)-6-(hydroxymethyl)-tetrahydro-2H-pyran-3,4,5-triol]: the IC50 was found to be 0.111 µM.

As for `Cc1cc([C@@H]2O[C@H](CO)[C@@H](O)[C@H](O)[C@H]2O)sc1Cc1ccc(Cl)cc1` [Example 28, (2R,3R,4S,5S,6R)-2-(5-(4-chlorobenzyl)-4-methylthiophen-2-yl)-6-(hydroxymethyl)tetrahydro-2H-pyran-3,4,5-triol], the IC50 came out at 0.451 µM.

On to `C=CCOc1ccc(Cc2cc([C@@H]3O[C@H](CO)[C@@H](O)[C@H](O)[C@H]3O)sc2C)cc1` [Example 22, (2R,3R,4S,5S,6R)-2-(4-(4-(allyloxy)benzyl)-5-methylthiophen-2-yl)-6-(hydroxymethyl)-tetrahydro-2H-pyran-3,4,5-triol], for which the IC50 was found to be 0.0275 µM.

As for `CCOc1ccc(Cc2cc([C@@H]3O[C@H](CO)[C@@H](O)[C@H](O)[C@H]3O)sc2C)cc1` [Example 19, (2R,3R,4S,5S,6R)-2-(4-(4-ethoxybenzyl)-5-methylthiophen-2-yl)-6-(hydroxymethyl)-tetrahydro-2H-pyran-3,4,5-triol], the IC50 came out at 0.00873 µM.

Regarding `COCCOc1ccc(Cc2cc([C@@H]3O[C@H](CO)[C@@H](O)[C@H](O)[C@H]3O)sc2Cl)cc1` [Example 10, (2R,3R,4S,5S,6R)-2-(5-chloro-4-(4-(2-methoxyethoxy)benzyl)thiophen-2-yl)-6-(hydroxymethyl)-tetrahydro-2H-pyran-3,4,5-triol], the IC50 was 0.115 µM.

As for `OC[C@H]1O[C@@H](c2cc(Cc3ccc(O)cc3)c(Cl)s2)[C@H](O)[C@@H](O)[C@@H]1O` [Example 6, (2R,3R,4S,5S,6R)-2-(5-chloro-4-(4-hydroxybenzyl)thiophen-2-yl)-6-(hydroxymethyl)-tetrahydro-2H-pyran-3,4,5-triol], the IC50 amounted to 0.14 µM.

Take `Cc1cc([C@@H]2O[C@H](CO)[C@@H](O)[C@H](O)[C@H]2O)sc1Cc1ccc(F)cc1` [Example 29, (2R,3R,4S,5S,6R)-2-(5-(4-fluorobenzyl)-4-methylthiophen-2-yl)-6-(hydroxymethyl)tetrahydro-2H-pyran-3,4,5-triol]: the IC50 is over 10 µM.

For the compound `CCOc1ccc(Cc2sc([C@@H]3O[C@H](CO)[C@@H](O)[C@H](O)[C@H]3O)cc2C)cc1` [Example 31, (2R,3R,4S,5S,6R)-2-(5-(4-ethoxybenzyl)-4-methylthiophen-2-yl)-6-(hydroxymethyl)tetrahydro-2H-pyran-3,4,5-triol], the IC50 was 0.0714 µM.

Turning to `CCCOc1ccc(Cc2cc([C@@H]3O[C@H](CO)[C@@H](O)[C@H](O)[C@H]3O)sc2Cl)cc1` [Example 5, (2R,3R,4S,5S,6R)-2-(5-chloro-4-(4-propoxybenzyl)thiophen-2-yl)-6-(hydroxymethyl)-tetrahydro-2H-pyran-3,4,5-triol], the IC50 came out at 0.065 µM.

As to `CCCc1ccc(Cc2sc([C@@H]3O[C@H](CO)[C@@H](O)[C@H](O)[C@H]3O)cc2C)cc1` [Example 24, (2R,3S,4S,5R,6R)-2-(hydroxymethyl)-6-(4-methyl-5-(4-propylbenzyl)thiophen-2-yl)tetrahydro-2H-pyran-3,4,5-triol], the IC50 was 0.0598 µM.

In the case of `Cc1cc([C@@H]2O[C@H](CO)[C@@H](O)[C@H](O)[C@H]2O)sc1Cc1ccc(C(C)(C)C)cc1` [Example 27, (2R,3R,4S,5S,6R)-2-(5-(4-tert-butylbenzyl)-4-methylthiophen-2-yl)-6-(hydroxymethyl)tetrahydro-2H-pyran-3,4,5-triol], the IC50 came to 0.0883 µM.

In the case of `C=CCOc1ccc(Cc2cc([C@@H]3O[C@H](CO)[C@@H](O)[C@H](O)[C@H]3O)sc2Cl)cc1` [Example 4, (2R,3R,4S,5S,6R)-2-(4-(4-(allyloxy)benzyl)-5-chlorothiophen-2-yl)-6-(hydroxymethyl)-tetrahydro-2H-pyran-3,4,5-triol], the IC50 stood at 0.0546 µM.

As to `CSc1ccc(Cc2cc([C@@H]3O[C@H](CO)[C@@H](O)[C@H](O)[C@H]3O)sc2Cl)cc1` [Example 12, (2R,3R,4S,5S,6R)-2-(5-chloro-4-(4-(methylthio)benzyl)thiophen-2-yl)-6-(hydroxymethyl)-tetrahydro-2H-pyran-3,4,5-triol], the IC50 was 0.0128 µM.
